# Source: ChEMBL document CHEMBL6083182, “Development of Peptide Paratope Mimics Derived from the Anti-ROR1 Antibody and Long-Acting Peptide-Drug Conjugates for Targeted Cancer Therapy” (J Med Chem, 2024)
# Activity calls are given as the source filed them. The rule behind the calls is not given here. Where a SMILES comes first, the peptide text is derived from it. [ ]: non-standard residue; d: D form. The star is where a group is joined. X1 = COc1cccc2c1C(=O)c1c(O)c3c(c(O)c1C2=O)C[C@@](O)(C(=O)CO)C[C@@H]3O[C@H]1C[C@H](NC(=O)OCc2ccc(NC(=O)C(CCCNC(N)=O)NC(=O)C(NC(=O)CCCCCN3C(=O)CC(*)C3=O)C(C)C)cc2)[C@H](O)[C@H](C)O1; C18 diacid = O=C(O)CCCCCCCCCCCCCCCCC(=O)*; AEEA = NCCOCCOCC(=O)O
# Key:
# MDA-MB-231 [1] = experiment: Induction of apoptosis in human MDA-MB-231 cells assessed as late apoptotic cells at 15 nM incubated for 24 hrs by AnnexinV-FITC/PI staining based flow cytometry (reference value: 0.034%); type: functional
# [2] = Elimination rate constant in Sprague-Dawley rat at 15 mg/kg, iv measured upto 12 hrs by UPLC-QTOF/MS analysis; type: ADME, organism-based; conditions: in vivo
# SK-HEP1 = experiment: Cytotoxicity against human SK-HEP1 cells assessed as decrease in cell viability incubated for 24 hrs by CCK-8 assay; type: functional, cell-based; conditions: SK-HEP1, 24 h
# [3] = Toxicity in BALB/c nude mouse xenografted with human MDA-MB-231 cells assessed as change in body weight at 5 mg/kg, iv measured after first injection starting from day 3 on day 6; type: organism-based; conditions: in vivo, 72 h, time 3 day
# MDA-MB-231 [4] = experiment: Induction of apoptosis in human MDA-MB-231 cells assessed as late apoptotic cells at 16 nM incubated for 24 hrs by AnnexinV-FITC/PI staining based flow cytometry (reference value: 0.034%); type: functional
# [5] = molecular target: Inactive tyrosine-protein kinase transmembrane receptor ROR1 (Homo sapiens, UniProt Q01973); experiment: Binding affinity to N-terminal His/GST-tagged recombinant human ROR1 (453 to 783 residues) extracted from baculovirus infected insect cells assessed as dissociation constant by SPR analysis
# Inactive tyrosine-protein kinase transmembrane receptor ROR1, sequence (Q01973 whole entry, the tested form may be a part): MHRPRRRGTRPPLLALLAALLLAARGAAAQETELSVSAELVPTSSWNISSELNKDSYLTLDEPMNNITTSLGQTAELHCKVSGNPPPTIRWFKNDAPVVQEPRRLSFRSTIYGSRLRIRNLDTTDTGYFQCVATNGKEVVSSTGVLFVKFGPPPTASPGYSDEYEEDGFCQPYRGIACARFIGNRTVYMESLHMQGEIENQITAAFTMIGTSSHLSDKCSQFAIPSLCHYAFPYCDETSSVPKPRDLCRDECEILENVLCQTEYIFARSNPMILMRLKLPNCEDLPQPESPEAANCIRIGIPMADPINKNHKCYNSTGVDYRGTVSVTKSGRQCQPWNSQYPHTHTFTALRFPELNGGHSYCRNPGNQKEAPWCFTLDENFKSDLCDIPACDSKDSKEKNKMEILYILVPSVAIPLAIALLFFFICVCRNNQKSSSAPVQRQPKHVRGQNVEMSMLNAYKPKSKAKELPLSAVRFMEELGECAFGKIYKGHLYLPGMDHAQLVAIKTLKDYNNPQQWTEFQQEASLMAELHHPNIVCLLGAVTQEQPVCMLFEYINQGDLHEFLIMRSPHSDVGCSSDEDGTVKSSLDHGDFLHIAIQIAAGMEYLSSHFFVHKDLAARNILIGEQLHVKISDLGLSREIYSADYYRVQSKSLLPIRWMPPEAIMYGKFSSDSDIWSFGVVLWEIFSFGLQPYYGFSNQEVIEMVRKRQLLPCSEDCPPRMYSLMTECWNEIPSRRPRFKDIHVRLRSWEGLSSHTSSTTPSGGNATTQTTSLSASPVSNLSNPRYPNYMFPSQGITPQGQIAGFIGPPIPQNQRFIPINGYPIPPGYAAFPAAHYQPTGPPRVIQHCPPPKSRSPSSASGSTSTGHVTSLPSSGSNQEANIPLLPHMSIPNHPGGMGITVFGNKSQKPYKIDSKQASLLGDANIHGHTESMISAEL
# MDA-MB-231 [6] = experiment: Antitumor activity against human MDA-MB-231 cells xenografted in BALB/c nude mouse assessed as tumor growth inhibition at 5 mg/kg, iv administered once every 3 days for 27 days starting from day 3; type: functional, organism-based; conditions: time 24.0 day
# MDA-MB-231 [7] = experiment: Induction of apoptosis in human MDA-MB-231 cells assessed as viable cells at 15 nM incubated for 24 hrs by AnnexinV-FITC/PI staining based flow cytometry (reference value: 99.9%); type: functional; conditions: read-out: Activity
# [8] = Toxicity in BALB/c nude mouse xenografted with human MDA-MB-231 cells assessed as effect on spleen at 5 mg/kg, iv administered once every 3 days for 27 days starting from day 3 by H and E staining based analysis; type: organism-based; conditions: in vivo, 576 h, time 24 day
# MDA-MB-231 [9] = experiment: Induction of apoptosis in human MDA-MB-231 cells assessed as necrotic cells at 15 nM incubated for 24 hrs by AnnexinV-FITC/PI staining based flow cytometry (reference value: 0.034%); type: functional
# [10] = Cytotoxicity against human MCF-10A cells assessed as decrease in cell viability incubated for 24 hrs by CCK-8 assay; type: toxicity, cell-based
# MDA-MB-231 [11] = experiment: Induction of apoptosis in human MDA-MB-231 cells assessed as early apoptotic cells at 15 nM incubated for 24 hrs by AnnexinV-FITC/PI staining based flow cytometry (reference value: 0%); type: functional
# [12] = AUC(0 to infinity) in Sprague-Dawley rat at 15 mg/kg, iv measured upto 12 hrs by UPLC-QTOF/MS analysis; type: ADME, organism-based; conditions: in vivo
# [13] = Toxicity in BALB/c nude mouse xenografted with human MDA-MB-231 cells assessed as effect on ALT level at 5 mg/kg, iv administered once every 3 days for 27 days starting from day 3; type: organism-based; conditions: in vivo, 576 h, time 24 day
# [14] = AUC(0 to t) in Sprague-Dawley rat at 15 mg/kg, iv measured upto 12 hrs by UPLC-QTOF/MS analysis; type: ADME, organism-based; conditions: in vivo
# [15] = Clearance in Sprague-Dawley rat at 15 mg/kg, iv measured upto 12 hrs by UPLC-QTOF/MS analysis; type: ADME, organism-based; conditions: in vivo
# MCF7 = experiment: Cytotoxicity against ROR1-negative human MCF7 cells assessed as decrease in cell viability incubated for 24 hrs by CCK-8 assay; type: functional, cell-based; conditions: MCF7, 24 h
# [16] = Toxicity in BALB/c nude mouse xenografted with human MDA-MB-231 cells assessed as effect on lung at 5 mg/kg, iv administered once every 3 days for 27 days starting from day 3 by H and E staining based analysis; type: organism-based; conditions: in vivo
# MDA-MB-231 [17] = experiment: Induction of apoptosis in human MDA-MB-231 cells at 10 uM incubated for 24 hrs by Annexin V-FITC/PI staining based flow cytometric analysis; type: functional, cell-based
# [18] = MRT in Sprague-Dawley rat at 15 mg/kg, iv measured upto 12 hrs by UPLC-QTOF/MS analysis; type: ADME, organism-based; conditions: in vivo
# [19] = Drug uptake in ROR1-negative human MCF7 cells assessed as increase in fluorescence intensity at 10 uM incubated for 2 hrs by Hoechst 33342 staining based confocal fluorescence microscopic analysis; type: ADME, cell-based; conditions: mcf7, 2 h
# [20] = Drug uptake in ROR1-positive human MDA-MB-231 cells cytoplasm assessed as increase in red fluorescence at 10 uM measured after 2 hrs by Hoechst 33342 staining based confocal fluorescence microscopic analysis; type: ADME, subcellular; conditions: mda-mb-231, 2 h
# [21] = Toxicity in BALB/c nude mouse xenografted with human MDA-MB-231 cells assessed as body weight loss at 5 mg/kg, iv administered once every 3 days for 27 days starting from day 3; type: organism-based; conditions: in vivo, 576 h, time 24 day
# [22] = Toxicity in BALB/c nude mouse xenografted in human MDA-MB-231 cells assessed as effect on AST level at 5 mg/kg, iv administered once every 3 days for 27 days starting from day 3; type: organism-based; conditions: in vivo, 576 h, time 24 day
# [23] = Toxicity in BALB/c nude mouse xenografted with human MDA-MB-231 cells assessed as effect on kidney at 5 mg/kg, iv administered once every 3 days for 27 days starting from day 3 by H and E staining based analysis; type: organism-based; conditions: in vivo
# MDA-MB-231 [24] = experiment: Antitumor activity against human MDA-MB-231 cells xenografted in BALB/c nude mouse assessed as reduction in tumor volume at 5 mg/kg, iv measured after first injection starting from day 3 on day 6; type: functional, organism-based; conditions: time 3.0 day
# [25] = Toxicity in BALB/c nude mouse xenografted with human MDA-MB-231 cells assessed as effect on liver at 5 mg/kg, iv administered once every 3 days for 27 days starting from day 3 by H and E staining based analysis; type: organism-based; conditions: in vivo, 576 h, time 24 day
# [26] = Half life in Sprague-Dawley rat at 15 mg/kg, iv measured upto 12 hrs by UPLC-QTOF/MS analysis; type: ADME, organism-based; conditions: in vivo
# MDA-MB-231 [27] = experiment: Induction of apoptosis in human MDA-MB-231 cells assessed as viable cells at 16 nM incubated for 24 hrs by AnnexinV-FITC/PI staining based flow cytometry (reference value: 99.9%); type: functional; conditions: read-out: Activity
# MDA-MB-231 [28] = experiment: Induction of apoptosis in human MDA-MB-231 cells assessed as early apoptotic cells at 16 nM incubated for 24 hrs by AnnexinV-FITC/PI staining based flow cytometry (reference value: 0%); type: functional
# [29] = Area under the first moment curve in Sprague-Dawley rat at 15 mg/kg, iv measured upto 12 hrs by UPLC-QTOF/MS analysis; type: ADME, organism-based; conditions: in vivo
# MDA-MB-231 [30] = experiment: Cytotoxicity against ROR1-positive human MDA-MB-231 cells assessed as decrease in cell viability incubated for 24 hrs by CCK-8 assay; type: functional, cell-based; conditions: MDA-MB-231, 24 h
# [31] = Toxicity in BALB/c nude mouse xenografted with human MDA-MB-231 cells assessed as effect on heart at 5 mg/kg, iv administered once every 3 days for 27 days starting from day 3 by H and E staining based analysis; type: organism-based; conditions: in vivo, 576 h, time 24 day
# MDA-MB-231 [32] = experiment: Induction of apoptosis in human MDA-MB-231 cells assessed as necrotic cells at 16 nM incubated for 24 hrs by AnnexinV-FITC/PI staining based flow cytometry (reference value: 0.034%); type: functional
structure (smiles),measurement,setting,value
CC[C@H](C)[C@H](NC(=O)[C@H](CC(=O)O)NC(=O)[C@H](CO)NC(=O)CNC(=O)[C@H](CSC1CC(=O)N(CCCCCC(=O)NC(C(=O)NC(CCCNC(N)=O)C(=O)Nc2ccc(COC(=O)N[C@H]3C[C@H](O[C@H]4C[C@](O)(C(=O)CO)Cc5c(O)c6c(c(O)c54)C(=O)c4c(OC)cccc4C6=O)O[C@@H](C)[C@H]3O)cc2)C(C)C)C1=O)NC(=O)CNC(=O)[C@H](CCCCN)NC(=O)COCCOCCNC(=O)COCCOCCNC(=O)[C@H](CCC(=O)O)NC(=O)CCCCCCCCCCCCCCCCC(=O)O)C(=O)N[C@@H](CC(N)=O)C(=O)N[C@@H](CC(=O)O)C(=O)N[C@@H](CCCNC(=N)N)C(=O)N[C@@H](CCC(N)=O)C(=O)N[C@H](C(=O)N1CCC[C@H]1C(=O)NCC(=O)N[C@@H](Cc1ccc(O)cc1)C(=O)N[C@@H](CO)C(=O)N[C@H](C(=O)N[C@@H](Cc1ccc(O)cc1)C(=O)N[C@@H](Cc1c[nH]c2ccccc12)C(=O)NCC(=O)N[C@@H](CC(=O)O)C(=O)N[C@@H](Cc1ccccc1)C(N)=O)[C@@H](C)O)[C@@H](C)CC (some centres undefined) ({C18 diacid}-E[AEEA][AEEA]KGC(X1)GSDINDRQIPGYSTYWGDF-NH2),Activity,MDA-MB-231 [1],5.59%
same,k el at 12 h,[2],8.92e-05 s⁻¹
same,IC50,SK-HEP1,0.576 µM
same,Activity,[3],Non-toxic
same,Activity,MDA-MB-231 [4],9.51%
same,Kd,[5],0.00172 µM
same,Activity,MDA-MB-231 [6],Active
same,viability at 0.015 µM,MDA-MB-231 [7],80.1%
same,Activity,[8],Non-toxic
same,Activity,MDA-MB-231 [9],1.02%
same,IC50 at 24 h,[10],23.2 µM
same,Activity,MDA-MB-231 [11],13.3%
same,AUC(0-inf),[12],57800 ng·h/mL
same,Activity,[13],Toxic
same,AUCt,[14],55100 ng·h/mL
same,CL,[15],0.001 mg/ng/mL/h
same,IC50,MCF7,10.5 µM
same,Activity,[16],Non-toxic
same,Activity,MDA-MB-231 [17],Active; Exhibited Apoptosis Primarily In Early Stage
same,MRT,[18],3.78 h
same,Drug uptake,[19],Not_active
same,Drug uptake,[20],Active
same,Activity,[21],Non-toxic
same,Activity,[22],Toxic
same,Activity,[23],Non-toxic
same,Activity,MDA-MB-231 [24],inactive
same,Activity,[25],Non-toxic
same,half-life,[26],2.62 h
same,viability at 0.016 µM,MDA-MB-231 [27],50.3%
same,Activity,MDA-MB-231 [28],39.7%
same,AUMC,[29],217552.348 ng/mL.hr^2
same,IC50,MDA-MB-231 [30],0.015 µM
same,Activity,[31],Non-toxic
same,Activity,MDA-MB-231 [32],0.5%
